Data published in patent publication US20120252827A1, “COMBINATION OF THERAPY COMPRISING ZD6474 AND A TAXANE” (priority 2001, published 2012).

Tested on: GEO human colon cancer xenografts
Assay: GEO human colon cancer xenograft model: ZD6474 dosed intraperitoneally
Type: in vivo, BALB/c athymic (nu+/nu+) mice
Details: GEO xenografts s.c. in mice; for Average time (days) from day 28 to reach an average tumour volume of 2 cm^3 (approximately 10% of mouse body weight): paclitaxel 400 μg/mouse i.p., ZD6474 100 mg/kg/day i.p.; for Average tumour volume on day 28 after tumour cell injection: treatment from day 7, paclitaxel 400 μg/mouse i.p. days 7, 14, 21, 28, ZD6474 100 mg/kg/day i.p. days 7-11, 14-18, 21-25, 28-32
Protocol: a) Geo Human Colon Cancer Xenograft Model: ZD6474 Dosed Intraperitoneally
Female BALB/c athymic (nu+/nu+) mice 4-6 weeks of age were injected subcutaneously (s.c.) with GEO human colon cancer cells (10^7 cells resuspended in 200 μl Matrigel) on day 0. Treatment was initiated on day 7 after s.c. implantation of GEO cells when the average tumour volume was 0.25 (+0.05) cm^3. 10 mice per group were treated either with intraperitoneal (i.p.) paclitaxel (400 μg/mouse) on days 7, 14, 21 and 28, or with ZD6474 (100 mg/kg/day i.p. suspended in a 1% (v/v) solution of polyoxyethylene (20) sorbitan mono-oleate in deionised water) on days 7-11, 14-18, 21-25 and 28-32, or with a combination of both agents. In the case of combination treatments, where mice received both agents on the same day, paclitaxel was given 10-15 minutes before ZD6474. Tumour size was measured using the formula π/6×larger diameter×(smaller diameter)^2.
The average tumour volume on day 28 following tumour cell injection in control mice, 1.95 (+0.15) cm^3, was approximately 10% of nude mouse body weight and mice in this group were sacrificed at this time. […] Statistical evaluations of time to reach a tumour volume of 2 cm^3 has been done using the Mantel-Cox logrank test with the following results: ZD6474 (100 mg/kg) versus control (p=0.001); paclitaxel+ZD6474 (100 mg/kg) versus control (p=0.0001); paclitaxel+ZD6474 (100 mg/kg) versus paclitaxel (p=0.001); paclitaxel+ZD6474 (100 mg/kg) versus ZD6474 (100 mg/kg) (p=0.01).

SMILES	Average time (days) from day 28 to reach an average tumour volume of 2 cm^3 (approximately 10% of mouse body weight)	Average tumour volume on day 28 after tumour cell injection
COc1cc2c(Nc3ccc(Br)cc3F)ncnc2cc1OCC1CCN(C)CC1 [ZD6474, 4-(4-bromo-2-fluoroanilino)-6-methoxy-7-(1-methylpiperidin-4-ylmethoxy)quinazoline]	29 (±2) days	0.1 (±0.05) cm^3
CC(=O)O[C@H]1C(=O)[C@@]2(C)[C@H]([C@H](OC(=O)c3ccccc3)[C@]3(O)C[C@H](OC(=O)[C@H](O)[C@@H](NC(=O)c4ccccc4)c4ccccc4)C(C)=C1C3(C)C)[C@]1(OC(C)=O)CO[C@@H]1C[C@@H]2O [Paclitaxel, paclitaxel]	14 (±3) days	0.95 (±0.1) cm^3
